For assay [1], the target named is T1, AGPAT4 (Homo sapiens, UniProt Q9NRZ5).
T1 construct: The open reading frame (ORF) encoding the mRNA of AGPAT4 was cloned into the pDONR-221 donor vector; expressed in transfected cells; host or cells: Huh7
T1 sequence (Q9NRZ5 1-378): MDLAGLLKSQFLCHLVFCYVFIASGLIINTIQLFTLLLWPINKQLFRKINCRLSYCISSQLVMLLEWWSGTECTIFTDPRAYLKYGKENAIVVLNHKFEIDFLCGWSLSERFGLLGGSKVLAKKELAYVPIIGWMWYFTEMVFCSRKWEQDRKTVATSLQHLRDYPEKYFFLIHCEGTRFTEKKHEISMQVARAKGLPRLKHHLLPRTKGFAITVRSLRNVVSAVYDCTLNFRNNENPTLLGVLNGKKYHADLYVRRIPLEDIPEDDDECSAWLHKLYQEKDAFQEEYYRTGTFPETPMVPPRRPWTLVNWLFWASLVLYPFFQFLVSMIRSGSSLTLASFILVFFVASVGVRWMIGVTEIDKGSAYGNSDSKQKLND
As to the kind of experiment: Competitive gel-based ABPP in live cells with CL26-alkyne probe. In kind it is cell-based. Particulars: Huh7 cells stably expressing FLAG-AGPAT4. On the procedure: (§1) An in-gel fluorescence assay was performed to investigate the protein targets of CL26. Huh7 cells overexpressing AGPAT4 or cysteine mutants were pre-treated with CL26 at the indicated concentrations for 2 h, followed by CL26-alkyne (1 μM) treatment for another 2 h. Cells were harvested in RIPA buffer supplemented with protease and phosphatase inhibitors (Thermo Fisher Scientific #A32961). The proteins were precipitated by incubation with 6× volume of pre-chilled acetone at −20° C. overnight. Proteins were pelleted by centrifugation at 5000 g for 10 min and resuspended in PBS. The protein content was measured using the BCA assay and normalized to 2 mg/mL. Cell lysates (50 μL) were labelled with azide-fluor 545 by click reaction (final reaction mixture: azide-fluor 545 (25 μM), copper(II) sulfate (1 mM), TBTA (100 μM), and freshly prepared TCEP (1 mM)) at room temperature with constant agitation. After incubation for 1 h, the reaction was quenched with the sampling buffer and boiled at 90° C. for 5 min. Samples were subjected to SDS-PAGE, in-gel fluorescence was captured using ChemiDoc MP (Bio-Rad), and Coomassie Blue staining was performed. Similarly, immunoblotting was used to investigate the protein targets of CL26. Huh7 cells stably transfected with FLAG-AGPAT4 were pre-treated with either the solvent control or CL26 at the indicated concentrations for 2 h, followed by CL26-alkyne (10 μM) treatment for another 2 h. Cells were harvested, and lysates were prepared as described above unless specified. Anti-FLAG M 2 affinity beads were added in FLAG-tag pull-down experiments. After 4 h of incubation at 4° C., the beads were washed with TBS-T and resuspended in TBS-T. Sampling buffer was added and the samples were boiled for protein elution. The samples were subjected to SDS-PAG E and imaged for fluorescence signals before western blot analysis. In the probe pull-down experiment, 1 mL of lysate was labelled with desthiobiotin (DTB)-azide by a click reaction (final reaction mixture: copper(II) sulfate (1 mM), TBTA (100 μM), DTB-PEG-azide (100 μM), and freshly prepared TCEP (1 mM)). […]

Assay [2] relates to AGPAT4. The description is as above. In kind it is cell-based, human. Particulars: Huh7 cells, empty vector vs FLAG-AGPAT4; silver staining of enriched proteins. On the procedure:
as §1

For assay [3], the target named is T2, acyltransferase activity of AGPAT4 (Homo sapiens, UniProt Q9NRZ5).
T2 construct: The open reading frame (ORF) encoding the mRNA of AGPAT4 was cloned into the pDONR-221 donor vector; expressed in transfected cells; host or cells: Huh7 (lentiviral pEZ-Lv199-AGPAT4); also sorafenib-resistant HepG2 (endogenous AGPAT4)
T2 sequence (Q9NRZ5 1-378): T1 sequence (Q9NRZ5 1-378)
As to the kind of experiment: LPA to PA conversion assay. In kind it is biochemical. On the procedure: (§2) Enzyme activity was measured by quantifying the conversion of [3H]-LPA to [3H]-PA following the protocol outlined in a previous study (43). Briefly, the enzymatic reaction was prepared by combining 10 μmol/L 18:1 Lyso PA (Avanti Polar Lipids), 50 μmol/L oleoyl CoA (Sigma-Aldrich), 1 μL 1-oleoyl-[oleoyl-9,10^−3H]-LPA (specific activity 30-60 Ci/mmol; PerkinElmer), and 1 mg/mL fatty acid-free BSA in 200 μL 100 mM Tris-HCl buffer at pH 7.4. The reaction was initiated by adding 30 μg of total protein (cell lysate) and incubating the mixture at 37° C. for 10 min. To stop the reaction, 0.5 mL of 1-butanol containing 1 M HCl was added to extract phospholipids to stop the reaction. The butanol extract was then dried under vacuum, and the LPA and PA were separated using a solvent system consisting of chloroform, methanol, acetic acid, and water (25:10:3:1). Radioactive spots were identified by comparing their migration with unlabelled LPA and PA standards and visualized using iodine vapours. The spots corresponding to [3H]-LPA and [3H]-PA were scraped and their radioactivity was measured using a Tri-Carb Liquid Scintillation Counter 4810 (PerkinElmer Life Sciences).

For assay [4], the target named is T3, acyltransferase activity of AGPAT4 (Homo sapiens, UniProt Q9NRZ5, C228A).
T3 construct: The open reading frame (ORF) encoding the mRNA of AGPAT4 was cloned into the pDONR-221 donor vector; expressed in transfected cells; host or cells: Huh7 (lentiviral pEZ-Lv199-AGPAT4)
T3 sequence (Q9NRZ5 1-378 C228A): T1 sequence (Q9NRZ5 1-378) with C228A
As to the kind of experiment: LPA to PA conversion assay. In kind it is biochemical. Particulars: Huh7 cells, AGPAT4 C228A mutant. On the procedure: as §2

Residue numbers refer to the chain shown, from its start.

On to `O=C(CCl)NCc1ccc(-c2nc3ccccc3s2)o1` [CL26, N-[[5-(2-benzothiazolyl)-2-furanyl]methyl]-2-chloroacetamide], for which, at AGPAT4 [1], the “in-gel fluorescence of CL26-alkyne-bound AGPAT4 upon CL26 pre-treatment (target engagement)” value was “significant decrease in fluorescence intensity”. Also, the off-target binding entry in the assay with AGPAT4 [2] is recorded as “minimal off-target binding”. Also, the “inhibition of acyltransferase activity (LPA to PA conversion)” value in assay [3] (Huh7 cells overexpressing AGPAT4 and sorafenib-resistant HepG2 cells) is on record as “inhibition of acyltransferase activity of AGPAT4 in vitro was verified”. Also, the “inhibition of acyltransferase activity (PA conversion assay) in tumors” value in assay [3] (sorafenib-resistant HCC PDX model #2) is “inhibitory effect of CL26 on acyltransferase activity in sorafenib-resistant PDX was confirmed”. Further, in assay [4], the “LPA to PA conversion vs DMSO control” value is “did not show difference in LPA to PA conversion”.

The record behind these values is patent US20250360111A1, “COMPOSITIONS OF AGPAT4 INHIBITORS AND METHODS OF USING THEREOF TO TREAT CANCER” (The University of Hong Kong, priority 2024, published 2025).
